Here are results for 17 molecules from patent US20100056515A1, “BENZIMIDAZOLE COMPOUNDS” (priority 2006, published 2010).

Data set [1] concerns the target T1, human CRF receptor (Homo sapiens, UniProt P34998).
T1 construct: expressed in transfected cells; host or cells: CHO cells (membrane fraction)
T1 sequence (P34998 24-415): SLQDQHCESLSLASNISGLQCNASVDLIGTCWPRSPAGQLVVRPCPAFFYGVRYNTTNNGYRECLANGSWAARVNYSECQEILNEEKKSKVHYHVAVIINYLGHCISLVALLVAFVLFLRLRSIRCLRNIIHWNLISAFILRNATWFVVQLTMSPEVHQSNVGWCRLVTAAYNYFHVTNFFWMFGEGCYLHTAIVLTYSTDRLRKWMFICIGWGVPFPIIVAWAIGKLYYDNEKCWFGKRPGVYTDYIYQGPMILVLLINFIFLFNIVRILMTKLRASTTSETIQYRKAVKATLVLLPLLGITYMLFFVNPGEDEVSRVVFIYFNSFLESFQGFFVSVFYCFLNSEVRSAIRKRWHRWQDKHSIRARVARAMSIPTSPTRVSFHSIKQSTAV
Kind of data set: Measurement of CRF Binding Inhibitory Rate (receptor binding experiment with 125I-CRF). The settings on record: human CRF receptor expressing CHO cellular membrane fraction; 50 pM ovine 125I-CRF; 0.05 nM to 10 μM of compound; room temperature 1.5 hr; read-out: IC50 values (CRF binding inhibition).

Regarding `CCC(CC)c1cccc2nc(Oc3c(C)cc(Cl)cc3Cl)n(C)c12` [Example 91, 2-(2,4-Dichloro-6-methylphenoxy)-7-(1-ethylpropyl)-1-methyl-1H-benzimidazole], the melting point fell in the range of 91 to 92 °C. Moreover, the concentration for half-maximal inhibition (IC50) in data set [1] is less than 1000 nM.
On to `CCC(CC)c1ccc(OC)c2nc(Oc3ccc(OC(F)(F)F)cc3Br)n(C)c12` [Example 10, 2-[2-Bromo-4-(trifluoromethoxy)phenoxy]-7-(1-ethylpropyl)-4-methoxy-1-methyl-1H-benzimidazole], for which the melting point was in the range of 117 to 118 °C. Besides, in data set [1], the 50% inhibitory concentration (IC50) is less than 1000 nM.
On to `CCC(CC)c1ccc(Cl)c2nc(Nc3c(C)cc(Cl)cc3SC)n(C)c12` [Example 50, 4-Chloro-N-[4-chloro-2-methyl-6-(methylthio)phenyl]-7-(1-ethylpropyl)-1-methyl-1H-benzimidazol-2-amine], for which the melting point was 167 to 169 °C. Further, the IC50 in data set [1] was less than 1000 nM.
Regarding `CCC(CC)c1ccc(Cl)c2nc(Oc3c(Cl)cc(Cl)cc3N(C)C)n(C)c12` [Example 24, 3,5-Dichloro-2-{[4-chloro-7-(1-ethylpropyl)-1-methyl-1H-benzimidazol-2-yl]oxy}-N,N-dimethylaniline], the melting point lay in the range of 172 to 173 °C. Besides, the IC50 in data set [1] was less than 1000 nM.
Taken in the same sequence, the figures for `CCC(CC)c1ccc(OC)c2nc(Oc3c(Cl)cc(Cl)cc3N(C)C)n(C)c12` [Example 7, 3,5-Dichloro-2-{[7-(1-ethylpropyl)-4-methoxy-1-methyl-1H-benzimidazol-2-yl]oxy}-N,N-dimethylaniline] were 173 to 175 °C and less than 1000 nM.
Taken in the same sequence, the figures for `CCC(CC)c1ccc(Cl)c2nc(Oc3c(Cl)cc(Cl)cc3CN3CCCC3)n(C)c12` [Example 78, 4-Chloro-2-[2,4-dichloro-6-(pyrrolidin-1-ylmethyl)phenoxy]-7-(1-ethylpropyl)-1-methyl-1H-benzimidazole] were 122 to 123 °C and less than 1000 nM.
As to `CCC(CC)c1ccc(Cl)c2nc(Nc3c(C)cc(Cl)cc3[S+](C)[O-])n(C)c12` (stereo not shown) [Example 51, 4-Chloro-N-[4-chloro-2-methyl-6-(methylsulfinyl)phenyl]-7-(1-ethylpropyl)-1-methyl-1H-benzimidazol-2-amine], the melting point was in the range of 212 to 213 °C. For the same molecule, the IC50 in data set [1] is less than 1000 nM.
Take `CCC(CC)c1ccc(OC)c2nc(Oc3ccc(N(C)C)cc3Cl)n(C)c12` [Example 3, 3-Chloro-4-{[7-(1-ethylpropyl)-4-methoxy-1-methyl-1H-benzimidazol-2-yl]oxy}-N,N-dimethylaniline]: the melting point fell in the range of 122 to 123 °C. In data set [1], the IC50 was less than 1000 nM.
In turn, `CCC(CC)c1ccc(Cl)c2nc(Oc3c(Cl)cc(Cl)cc3CN(C)C)n(C)c12` [Example 86, 1-(3,5-Dichloro-2-{[4-chloro-7-(1-ethylpropyl)-1-methyl-1H-1-benzimidazol-2-yl]oxy}phenyl)-N,N-dimethylmethanamine] showed a melting point of 149 to 151 °C. Further, the IC50 in data set [1] was less than 1000 nM.
The molecule `CCC(CCO)c1ccc(Cl)c2nc(Oc3c(C)cc(Cl)cc3Cl)n(C)c12` (stereo not shown) [Example 97, 3-[4-Chloro-2-(2,4-dichloro-6-methylphenoxy)-1-methyl-1H-benzimidazol-7-yl]pentan-1-ol] gave a melting point of 165 to 167 °C. The IC50 in data set [1] is less than 1000 nM.
The molecule `CCC(CC)c1ccc(OC)c2nc(Oc3c(Cl)cc(N(C)C)cc3Cl)n(C)c12` [Example 2, 3,5-Dichloro-4-{[7-(1-ethylpropyl)-4-methoxy-1-methyl-1H-benzimidazol-2-yl]oxy}-N,N-dimethylaniline] yielded a melting point of 176 to 177 °C. Also, the IC50 in data set [1] is less than 1000 nM.
In turn, `CCC(CC)c1ccc(Cl)c2nc(Oc3c(Cl)cc(Cl)cc3S(N)(=O)=O)n(C)c12` [Example 32, 3,5-Dichloro-2-{[4-chloro-7-(1-ethylpropyl)-1-methyl-1H-5 benzimidazol-2-yl]oxy}benzenesulfonamide] gave a melting point of 133 to 134 °C. The IC50 in data set [1] is less than 1000 nM.
The molecule `CCC(CC)c1ccc(Cl)c2nc(Oc3c(C)cc(SC)cc3Cl)n(C)c12` [Example 36, 4-Chloro-2-[2-chloro-6-methyl-4-(methylthio)phenoxy]-7-(1-ethylpropyl)-1-methyl-1H-benzimidazole] gave a melting point of 141 to 143 °C. Besides, in data set [1], the IC50 was less than 1000 nM.
For `CCC(CC)c1ccc(OC)c2nc(Oc3c(Cl)cc(Cl)cc3CN3CCCC3)n(C)c12.Cl` [Example 79, 2-[2,4-Dichloro-6-(pyrrolidin-1-ylmethyl)phenoxy]-7-(1-ethylpropyl)-4-methoxy-1-methyl-1H-benzimidazole] the same measures were 183 to 185 °C and less than 1000 nM.
Molecule `CCC(CC)c1ccc(OC)c2nc(Oc3c(F)cc(Br)cc3Cl)n(C)c12` [Example 81, 2-(4-Bromo-2-chloro-6-fluorophenoxy)-7-(1-ethylpropyl)-4-methoxy-1-methyl-1H-benzimidazole] displayed a melting point of 129 to 131 °C. Further, the IC50 in data set [1] is less than 1000 nM.
Turning to `CCC(CC)c1ccc(OC)c2nc(Oc3ccc(C)nc3N(C)C)n(C)c12` [Example 5, 3-{[7-(1-Ethylpropyl)-4-methoxy-1-methyl-1H-benzimidazol-2-yl]oxy}-N,N,6-trimethylpyridin-2-amine], the melting point was 143 to 144 °C. Also, the IC50 in data set [1] was less than 1000 nM.
For `CCC(CC)c1ccc(OC)c2nc(Oc3ccc(Cl)cc3N(C)C)n(C)c12` [Example 4, 5-Chloro-2-{[7-(1-ethylpropyl)-4-methoxy-1-methyl-1H-benzimidazol-2-yl]oxy}-N,N-dimethylaniline] the same measures were 122 to 123 °C and less than 1000 nM.
